In patent publication EP4603105A1, “PHARMACEUTICAL COMPOSITION CONTAINING CYCLIC COMPOUND HAVING SELECTIVE KRAS INHIBITORY EFFECT AGAINST HRAS AND NRAS” (CHUGAI SEIYAKU KABUSHIKI KAISHA, priority 2022, dated 2024):
*1 amine or outer side, *2 acyl side, *3 side chain or, on linkers, in order; H or OH if unused. Where a SMILES comes first, the peptide text is derived from it. Bridges are numbered along the chain shown (N, C = ends). [ ]: non-standard residue; d: D form. The star is where a group is joined. hPhe(3-Cl-4-CF3) = N[C@@H](CCc1ccc(C(F)(F)F)c(Cl)c1)C(=O)O; X1 = CCCCN([C@@H](Cc1ccc(C)cc1)C(=O)[*:2])[*:1]; NMeGly(cPent) = CN[C@H](C(=O)O)C1CCCC1; NMeD = CN[C@@H](CC(=O)O)C(=O)O; NMeL = CN[C@@H](CC(C)C)C(=O)O; Morpholide = C1CN(*)CCO1; NMeA = CN[C@@H](C)C(=O)O; Ac5c = NC1(C(=O)O)CCCC1; Aze = O=C(O)[C@@H]1CCN1; Sar = CNCC(=O)O

Columns and labels:
[1] = target: GDP-bound KRAS wild-type protein (Homo sapiens, UniProt P01116); experiment: Binding to KRAS by surface plasmon resonance (SPR), dissociation constant KD
Sequence of GDP-bound KRAS wild-type protein (P01116 1-188 isoform P01116-2): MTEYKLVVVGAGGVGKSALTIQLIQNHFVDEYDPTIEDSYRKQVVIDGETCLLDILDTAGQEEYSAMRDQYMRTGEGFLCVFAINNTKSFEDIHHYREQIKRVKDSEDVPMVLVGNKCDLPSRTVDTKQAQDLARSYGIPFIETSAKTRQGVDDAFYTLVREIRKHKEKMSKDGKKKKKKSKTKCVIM
Procedure: Surface plasmon resonance was used to analyze the binding affinity of compounds for KRAS, NRAS, and HRAS. The apparatus used was Biacore 8K, 8K+, or T200 (GE Healthcare), and the running buffer used was HBS (10 mM HEPES-NaOH, 150 mM NaCl, pH 7.4) containing 1 mM DTT, 10 mM MgCl2, 0.01% Tween 20, 10 µM GDP, and 4% DMSO.
Biotinylated Avi-tag fusion KRAS, NRAS, and HRAS proteins were expressed in E. coli BL21 (DE3) strains, and after cells were homogenized, they were purified using Streptavidin Mutein Matrix and Superdex 75. After purification, GDP-loaded KRAS, NRAS, and HRAS proteins were immobilized on the surface of Sensor Chip CAP (Cytiva) coated with Biotin CAPture Reagent in an immobilization amount of about 100 to 300 RU. Binding of each compound was evaluated by the Single Cycle Kinetics method, and a running buffer or a compound solution was added to the RAS protein non-immobilized surface and the immobilized surface to obtain a binding response. The flow rate was set to 100 µL/min, and in the compound-adding cycle, compound solutions having different concentrations were intermittently added for 75 seconds each, starting from a low concentration. […] In the blank cycle, a running buffer was intermittently added and not the compound solution. The Biotin CAPture Reagent and RAS proteins were immobilized for each cycle, and at the end of each cycle, the sensor chip was regenerated by the regeneration solution appended to the Biotin CAPture Kit (Cytiva). Measurement was carried out at 30°C.
The resulting sensorgram was subjected to curve fitting based on a 1:1 binding model on Biacore Insight Evaluation Software or T200 Evaluation Software, and thereby the dissociation constant KD of each compound with respect to KRAS, NRAS, and HRAS was determined. […] Blank indicates a compound from which the KD value with respect to NRAS or HRAS was not obtained.

[2] = tested on: human lung cancer strain NCI-H441; assay type: cell-based
Outline: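 Signal came from […] measured per well once the reagent was added. Beforehand, cells were cultured at 37°C and 5% carbon dioxide on a compound series serially diluted in dimethyl sulfoxide.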

HRAS wild-type protein = HRAS wild-type protein (Homo sapiens, UniProt P01112); experiment: Binding to HRAS by surface plasmon resonance (SPR), KD and KD ratio to KRAS
Sequence of HRAS wild-type protein (P01112 whole entry): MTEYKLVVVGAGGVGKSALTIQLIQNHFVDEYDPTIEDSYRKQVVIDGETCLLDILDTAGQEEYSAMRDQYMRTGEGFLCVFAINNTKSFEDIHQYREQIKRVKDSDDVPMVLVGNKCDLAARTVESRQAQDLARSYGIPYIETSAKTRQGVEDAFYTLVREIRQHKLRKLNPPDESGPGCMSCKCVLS
Outline: (§1)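 Recombinant RAS proteins bearing a biotinylated Avi tag and loaded with GDP served as the captured ligand, recaptured fresh every cycle. Binding responses were referenced to an uncoated surface and a buffer-only blank cycle. Dissociation constants were obtained by 1:1 model fitting at 30°C.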

[3] = target: GDP-bound NRAS wild-type protein (Homo sapiens, UniProt P01111); experiment: Binding to NRAS by surface plasmon resonance (SPR), KD and KD ratio to KRAS
Sequence of GDP-bound NRAS wild-type protein (P01111 whole entry): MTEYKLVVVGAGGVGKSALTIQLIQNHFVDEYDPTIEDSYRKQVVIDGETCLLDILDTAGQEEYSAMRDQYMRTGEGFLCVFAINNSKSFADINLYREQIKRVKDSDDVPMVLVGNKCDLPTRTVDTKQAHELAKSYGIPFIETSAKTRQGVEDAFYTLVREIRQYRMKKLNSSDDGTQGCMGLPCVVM
Outline: as §1

[4] = Single Cycle Kinetics, 1:1 binding model
[5] = ratio of KD value for HRAS wild-type protein to KD value for KRAS (SPR)
[6] = ratio of KD value for GDP-bound NRAS wild-type protein to KD value for KRAS (SPR)
[7] = ratio of KD for HRAS wild-type protein to KD for KRAS
[8] = ratio of KD for GDP-bound NRAS wild-type protein to KD for KRAS

CC[C@H](C)[C@@H]1NC(=O)[C@H](CC)N(C)C(=O)C[C@@H](C(=O)N(C)C)N(C)C(=O)[C@H](C2CCCC2)N(C)C(=O)C2(CCC2)N(C)C(=O)[C@@H]2C[C@@H](C)CN2C(=O)[C@H](CCc2cc(F)c(C(F)(F)F)c(F)c2)NC(=O)CN(C)C(=O)[C@H](Cc2ccc(C)cc2)N2CC/C=C\C[C@@H](C2=O)N(C)C(=O)CN(C)C1=O [PP1787]
Kd [1, 4]: 0.071 nM | IC50 [2]: 9 nM | HRAS /KRAS (HRAS wild-type protein; [5]): B (a compound having 3 or more and less than 10 is denoted as B) | NRAS /KRAS [3, 6]: A (a compound having 10 or more and less than 20 is denoted as A)

CCO[C@@H]1C[C@H]2C(=O)NC3(CCC3)C(=O)N(C)[C@@H](C3CCCC3)C(=O)N(C)[C@H](C(=O)N(C)C)CC(=O)N(C)[C@@H](CC(C)C)C(=O)N[C@@H]([C@@H](C)CC)C(=O)N(C)CC(=O)N(C)[C@H]3C[C@@H](C)CCN(C3=O)[C@@H](Cc3ccc(C(F)(F)F)cc3)C(=O)N(C)CC(=O)N[C@@H](CCc3cc(F)c(C(F)(F)F)c(F)c3)C(=O)N2C1 [PP1018]
Kd ([1]; Single Cycle Kinetics): 0.017 nM | IC50 [2]: 6.8 nM | HRAS /KRAS (HRAS wild-type protein; [7]): B (a compound having 3 or more and less than 10 is denoted as B) | NRAS /KRAS [3, 8]: C (A compound having a KD ratio of 0.1 or more and less than 3 is denoted as C)

CC[C@H](C)[C@@H]1NC(=O)[C@H](CC(C)C)N(C)C(=O)C[C@@H](C(=O)N(C)C)N(C)C(=O)[C@H](C2CCCC2)N(C)C(=O)C2(CCC2)NC(=O)[C@@H]2C[C@H](C)CN2C(=O)[C@H](CCc2ccc(C(F)(F)F)c(Cl)c2)NC(=O)CN(C)C(=O)[C@H](Cc2ccc(C)cc2)N2CC/C=C\C[C@@H](C2=O)N(C)C(=O)CN(C)C1=O [PP1852]
Kd [1, 4]: 0.071 nM | IC50 [2]: 6 nM | HRAS /KRAS (HRAS wild-type protein; [5]): B (a compound having 3 or more and less than 10 is denoted as B) | NRAS /KRAS [3, 6]: A (a compound having 10 or more and less than 20 is denoted as A)

CCC(CC)[C@H]1C(=O)N(C)[C@H](C(=O)N(C)C)CC(=O)N(C)[C@@H](COC)C(=O)N[C@@H]([C@@H](C)CC)C(=O)N(C)CC(=O)N(C)[C@H]2C/C=C\CCN(C2=O)[C@@H](Cc2ccc(C)cc2)C(=O)N(C)CC(=O)N[C@@H](CCc2ccc(C(F)(F)F)c(OC)c2)C(=O)N2CCOC[C@H]2C(=O)NC2(CC(C)(C)C2)C(=O)N1C [PP2938]
Kd ([1]; 1:1 binding model): 1.1 nM | IC50 [2]: 104 nM | HRAS /KRAS (HRAS wild-type protein; [7]): A (a compound having 10 or more and less than 20 is denoted as A) | NRAS /KRAS [3, 8]: AA (a compound having 20 or more is denoted as AA)

CCC[C@H]1C(=O)N[C@@H]([C@@H](C)CC)C(=O)N(C)CC(=O)N(C)[C@H]2C/C=C\CCN(C2=O)[C@@H](Cc2ccc(C(F)(F)F)cc2)C(=O)N(C)CC(=O)N[C@@H](CCc2ccc(C(F)(F)F)c(Cl)c2)C(=O)N2CC3(CC3)C[C@H]2C(=O)NC2(CC(C)(C)C2)C(=O)N(C)[C@@H](CC(F)(F)F)C(=O)N(C)[C@H](C(=O)N(C)C)CC(=O)N1C [PP2985]
Kd ([1]; 1:1 binding model): 1.4 nM | IC50 [2]: 46.5 nM | HRAS /KRAS (HRAS wild-type protein; [7]): A (a compound having 10 or more and less than 20 is denoted as A) | NRAS /KRAS [3, 8]: AA (a compound having 20 or more is denoted as AA)

CC[C@H](C)[C@@H]1NC(=O)[C@H](CC(C)C)N(C)C(=O)C[C@@H](C(=O)N2CCOCC2)N(CC)C(=O)[C@H](C2CCCC2)N(C)C(=O)C2(CCC2)NC(=O)[C@@H]2CC(F)(F)CN2C(=O)[C@H](CCc2cc(F)c(C(F)(F)F)c(F)c2)NC(=O)CN(C)C(=O)[C@H](Cc2ccc(C(F)(F)F)cc2)N2CCCCC[C@@H](C2=O)N(C)C(=O)CN(C)C1=O [PP0954]
Kd ([1]; Single Cycle Kinetics): 7.5 nM | IC50 [2]: 438 nM | HRAS /KRAS (HRAS wild-type protein; [7]): A (a compound having 10 or more and less than 20 is denoted as A) | NRAS /KRAS [3, 8]: A (a compound having 10 or more and less than 20 is denoted as A)

CCO[C@@H]1C[C@H]2C(=O)NC3(CCC3)C(=O)N(C)[C@@H](C(CC)CC)C(=O)N(C)[C@H](C)CC(=O)N(C)[C@@H](CC(C)C)C(=O)N[C@@H]([C@@H](C)CC)C(=O)N(C)CC(=O)N(C)[C@H]3C/C=C\CCN(C3=O)[C@@H](Cc3ccc(F)cc3C)C(=O)N(C)CC(=O)N[C@@H](CCc3cc(F)c(C(F)(F)F)c(F)c3)C(=O)N2C1 [PP1524]
Kd [1, 4]: 5.7 nM | IC50 [2]: 439 nM | HRAS /KRAS (HRAS wild-type protein; [5]): B (a compound having 3 or more and less than 10 is denoted as B) | NRAS /KRAS [3, 6]: B (a compound having 3 or more and less than 10 is denoted as B)

CC[C@H](C)[C@@H]1NC(=O)[C@H](CC(C)C)N(C)C(=O)C[C@@H](C(=O)N2CCOCC2)N(C)C(=O)[C@H](C2CCCC2)N(C)C(=O)C2(CCC2)NC(=O)[C@@H]2C[C@@H](O)CN2C(=O)[C@H](CCc2cc(F)c(C(F)(F)F)c(F)c2)NC(=O)CN(C)C(=O)[C@H](Cc2ccc(C(F)(F)F)cc2)N2CCCCC[C@@H](C2=O)N(C)C(=O)CN(C)C1=O [PP0871]
Kd ([1]; Single Cycle Kinetics): 0.4 nM | IC50 [2]: 438 nM

C=CCCCC[C@H]1C(=O)N[C@@H]([C@@H](C)CC)C(=O)N(C)CC(=O)N(C)[C@H]2CCCCCN(C2=O)[C@@H](Cc2ccc(C(F)(F)F)cc2)C(=O)N(C)CC(=O)N[C@@H](CCc2cc(F)c(C(F)(F)F)c(F)c2)C(=O)N2C[C@H](OCC)C[C@H]2C(=O)N[C@](C)(CC=C)C(=O)N(C)[C@@H](C2CCCC2)C(=O)N(C)[C@H](C(=O)N2CCOCC2)CC(=O)N1C [PP0881]
Kd ([1]; Single Cycle Kinetics): 5.5 nM | IC50 [2]: 374 nM

CCO[C@@H]1C[C@H]2C(=O)NC3(CCC3)C(=O)N(C)[C@@H](C(CC)CC)C(=O)N(C)[C@H](C(=O)N(C)C)CC(=O)N(C)[C@@H](C)C(=O)N[C@@H]([C@@H](C)CC)C(=O)N(C)CC(=O)N(C)[C@H]3C/C=C\CCN(C3=O)[C@@H](Cc3ccc(C(F)(F)F)cc3)C(=O)N(C)CC(=O)N[C@@H](CCc3ccc(C(F)(F)F)c(OC)c3)C(=O)N2C1 [PP1206]
Kd [1, 4]: 0.17 nM | HRAS /KRAS (HRAS wild-type protein; ratio of KD with respect to HRAS wild-type protein to KD with respect to KRAS): A (a compound having 10 or more and less than 20 is denoted as A) | NRAS /KRAS ([3]; ratio of KD with respect to GDP-bound NRAS wild-type protein to KD with respect to KRAS): AA (a compound having 20 or more is denoted as AA)

CC[C@H](C)[C@@H]1NC(=O)[C@H](CC(C)C)N(C)C(=O)C[C@@H](C(=O)N2CCOCC2)N(C)C(=O)[C@H](C2CCCC2)N(C)C(=O)C2(CCC2)NC(=O)[C@@H]2[C@@H](OCCC(F)(F)F)CCN2C(=O)[C@H](CCc2cc(F)c(C(F)(F)F)c(F)c2)NC(=O)CN(C)C(=O)[C@H](Cc2ccc(C(F)(F)F)cc2)N2CCCCC[C@@H](C2=O)N(C)C(=O)CN(C)C1=O [PP1008]
Kd ([1]; Single Cycle Kinetics): 1.1 nM | IC50 [2]: 102 nM

CC[C@H](C)[C@@H]1NC(=O)[C@H](CC(C)C)N(C)C(=O)C[C@@H](C(=O)N(C)C)N(CCC2CCCC2)C(=O)[C@H](C2CCCC2)N(C)C(=O)C2(CCCC2)NC(=O)[C@@H]2CCCN2C(=O)[C@H](CCc2ccc(C(F)(F)F)c(Cl)c2)NC(=O)CN(C)C(=O)[C@H](Cc2ccc(F)cc2)N2CCCCC[C@@H](C2=O)N(C)C(=O)CN(C)C1=O [PP0975]
Kd ([1]; Single Cycle Kinetics): 8.9 nM | IC50 [2]: 1570 nM

CC[C@H](C)[C@@H]1NC(=O)[C@H](CC(C)C)N(C)C(=O)C[C@@H](C(=O)N2CCOCC2)N(C)C(=O)[C@H](C2CCCC2)N(C)C(=O)C2(CCC2)NC(=O)[C@@H]2[C@@H](O)CCN2C(=O)[C@H](CCc2cc(F)c(C(F)(F)F)c(F)c2)NC(=O)CN(C)C(=O)[C@H](Cc2ccc(C(F)(F)F)cc2)N2CCCCC[C@@H](C2=O)N(C)C(=O)CN(C)C1=O [PP0872]
Kd ([1]; Single Cycle Kinetics): 1.7 nM | IC50 [2]: 2600 nM

CCCCN1C(=O)[C@@H]2CCN2C(=O)[C@H](C)N(C)C(=O)[C@H]([C@@H](C)CC)NC(=O)[C@H](CC(C)C)N(C)C(=O)C[C@@H](C(=O)N2CCOCC2)N(C)C(=O)[C@H](C2CCCC2)N(C)C(=O)C2(CCCC2)NC(=O)[C@@H]2CCCN2C(=O)[C@H](CCc2ccc(C(F)(F)F)c(Cl)c2)NC(=O)CN(C)C(=O)[C@@H]1Cc1ccc(C)cc1 [PP0055] ([NMeL]I[NMeA][Aze][X1][Sar][hPhe(3-Cl-4-CF3)]P[Ac5c][NMeGly(cPent)][NMeD]-Morpholide; lactam N-11)
Kd ([1]; 1:1 binding model): 0.27 nM | IC50 [2]: 3.5 nM
